Experimental data as given in patent US20240327381A1, “Compounds and Compositions for Selective Degradation of Engineered Proteins” (Celgene Corporation, priority 2023, published 2024).

Columns and labels:
Assay type in all cases: cell-based
[1] = target: T1, Helios (Homo sapiens, UniProt Q9UKS7); test: Helios degradation in Jurkat/Helios/HiBit cells (Nano-Glo luminescence); conditions: 18 hr, read-out: Helios Jurkat Hibit IC50
T1 construct: endogenous in cells; host or cells: Jurkat cells, CRISPR/Cas9 knock-in of HiBit at the IKZF2 locus
Procedure, shortened: (§1)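 Jurkat cells carrying CRISPR-knocked-in C-terminal HiBit-tagged endogenous IKZF2 were treated with compound in DMEM/10% FCS (10,000 cells/well) for 18 h at 37 °C. HiBit signal was read by Nano-Glo luminescence after 30 min at RT. EC50 for degradation came from a four-parameter logistic fit, with Ymax as % protein degraded.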

[2] = target: T2, Helios (Homo sapiens, UniProt Q96SW2+Q9UKS7); test: as above; conditions: Ymax is the % protein degraded, 18 hr
T2 construct: endogenous in cells; host or cells: Jurkat cells, CRISPR/Cas9 knock-in of HiBit at the IKZF2 locus
Procedure, shortened: as §1

[3] = target: T3, IKZF1 ZNF2_ZNF3 Q1F degron-tagged CD19 CAR (Homo sapiens, UniProt Q13422, Q146F); test: Degradation of Q1F degron-tagged CD19 CAR in Jurkat cells (flow cytometry of CAR levels); conditions: for DC50: Jurkat cells expressing CD19 CAR tagged with IKZF1 ZNF2_ZNF3 Q1F, 18 hours at 37° C., CAR levels normalized to untreated cells, read-out: Q1F Jurkat IC50; for Dmax: Ymax is the % protein degraded, Jurkat cells expressing Q1F degron-tagged CD19 CAR, 18 hours, read-out: Q1F Jurkat-YMax
T3 construct: ZNF2_ZNF3 Q1F degron (GERPFFCNQCGASFTQKGNLLRHIKLHSGEKPFKCHLCNYACRRRDALTGHLRTHS); fused on or other part: anti-CD19 scFv, CD28 transmembrane domain, 4-1BB costimulatory domain, CD3 zeta signaling domain (the CAR that carries the degron), and Nluc
Procedure, shortened: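 Jurkat cells were lentivirally transduced with an anti-CD19 scFv/CD28 TM/4-1BB/CD3ζ CAR tagged with an IKZF1 ZNF2_ZNF3 Q1F degron–Nluc, then treated with compound titrations for 18 h at 37 °C. CAR surface levels were stained (20 min, 4 °C), read by flow cytometry and normalised to untreated cells. EC50 came from a four-parameter logistic fit; Ymin is the minimum % CAR remaining.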

T1 sequence (Q9UKS7 whole entry): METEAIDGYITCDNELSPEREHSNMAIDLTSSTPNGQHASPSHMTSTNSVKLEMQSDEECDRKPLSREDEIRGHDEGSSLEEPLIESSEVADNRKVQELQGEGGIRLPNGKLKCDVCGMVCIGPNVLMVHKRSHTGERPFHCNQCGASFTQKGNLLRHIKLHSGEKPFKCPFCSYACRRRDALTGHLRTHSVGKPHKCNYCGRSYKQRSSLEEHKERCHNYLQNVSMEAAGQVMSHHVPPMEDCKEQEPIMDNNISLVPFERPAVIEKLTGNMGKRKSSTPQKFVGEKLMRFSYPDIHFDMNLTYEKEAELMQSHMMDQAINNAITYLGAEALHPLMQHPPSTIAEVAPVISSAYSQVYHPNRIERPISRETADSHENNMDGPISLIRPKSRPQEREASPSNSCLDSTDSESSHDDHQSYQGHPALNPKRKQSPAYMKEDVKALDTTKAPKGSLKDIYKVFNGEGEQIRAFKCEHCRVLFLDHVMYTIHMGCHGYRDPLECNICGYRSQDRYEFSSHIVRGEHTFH
T1 sequence (Q96SW2 whole entry, further chain): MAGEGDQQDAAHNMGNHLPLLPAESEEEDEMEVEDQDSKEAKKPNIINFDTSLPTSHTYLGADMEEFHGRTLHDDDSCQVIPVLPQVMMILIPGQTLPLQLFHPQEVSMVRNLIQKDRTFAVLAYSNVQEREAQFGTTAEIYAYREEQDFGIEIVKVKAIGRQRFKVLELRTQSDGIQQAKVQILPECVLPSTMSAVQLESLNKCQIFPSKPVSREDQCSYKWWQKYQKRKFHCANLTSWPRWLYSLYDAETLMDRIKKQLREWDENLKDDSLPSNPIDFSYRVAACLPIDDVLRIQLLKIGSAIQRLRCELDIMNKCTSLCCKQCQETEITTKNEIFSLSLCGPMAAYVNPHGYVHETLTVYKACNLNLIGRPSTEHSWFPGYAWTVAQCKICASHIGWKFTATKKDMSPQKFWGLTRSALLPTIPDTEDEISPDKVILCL
T1 sequence (Q16531 whole entry partner): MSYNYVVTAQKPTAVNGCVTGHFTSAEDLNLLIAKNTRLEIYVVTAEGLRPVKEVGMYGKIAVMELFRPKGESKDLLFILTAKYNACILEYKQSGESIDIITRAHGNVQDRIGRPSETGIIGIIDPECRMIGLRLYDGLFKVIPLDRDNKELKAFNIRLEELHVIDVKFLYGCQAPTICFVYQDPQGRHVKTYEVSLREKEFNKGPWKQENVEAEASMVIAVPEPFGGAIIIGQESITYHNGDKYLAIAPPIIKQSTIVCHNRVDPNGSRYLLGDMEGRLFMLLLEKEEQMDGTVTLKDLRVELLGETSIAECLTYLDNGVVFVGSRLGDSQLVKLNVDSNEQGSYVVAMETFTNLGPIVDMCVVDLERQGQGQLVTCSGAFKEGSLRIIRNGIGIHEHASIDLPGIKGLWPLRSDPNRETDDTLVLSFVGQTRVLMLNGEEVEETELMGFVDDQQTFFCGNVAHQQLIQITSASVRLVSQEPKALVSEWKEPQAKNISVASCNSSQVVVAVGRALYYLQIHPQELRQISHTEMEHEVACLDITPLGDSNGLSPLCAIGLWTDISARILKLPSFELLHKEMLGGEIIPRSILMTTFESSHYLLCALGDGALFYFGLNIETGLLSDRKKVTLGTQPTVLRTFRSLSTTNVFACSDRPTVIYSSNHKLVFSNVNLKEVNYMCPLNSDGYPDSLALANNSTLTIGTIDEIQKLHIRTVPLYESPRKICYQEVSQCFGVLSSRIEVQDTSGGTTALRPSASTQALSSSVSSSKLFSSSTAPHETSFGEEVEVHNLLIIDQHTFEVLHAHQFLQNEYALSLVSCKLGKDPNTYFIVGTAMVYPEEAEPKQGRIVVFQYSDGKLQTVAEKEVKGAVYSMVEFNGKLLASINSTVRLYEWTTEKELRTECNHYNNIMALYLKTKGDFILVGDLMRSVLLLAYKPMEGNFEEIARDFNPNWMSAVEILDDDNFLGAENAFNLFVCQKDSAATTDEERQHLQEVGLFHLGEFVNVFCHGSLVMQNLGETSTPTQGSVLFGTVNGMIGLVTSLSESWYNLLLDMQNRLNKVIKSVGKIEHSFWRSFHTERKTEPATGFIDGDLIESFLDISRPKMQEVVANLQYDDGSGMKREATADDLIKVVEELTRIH
T2 sequence (Q9UKS7 whole entry): as the sequence (Q9UKS7 whole entry) above
T2 sequence (Q96SW2 whole entry): as the sequence (Q96SW2 whole entry, further chain) above
T2 sequence (Q16531 whole entry partner): as the sequence (Q16531 whole entry partner) above
T3 sequence (Q13422 whole entry Q146F, the tested form may be a part): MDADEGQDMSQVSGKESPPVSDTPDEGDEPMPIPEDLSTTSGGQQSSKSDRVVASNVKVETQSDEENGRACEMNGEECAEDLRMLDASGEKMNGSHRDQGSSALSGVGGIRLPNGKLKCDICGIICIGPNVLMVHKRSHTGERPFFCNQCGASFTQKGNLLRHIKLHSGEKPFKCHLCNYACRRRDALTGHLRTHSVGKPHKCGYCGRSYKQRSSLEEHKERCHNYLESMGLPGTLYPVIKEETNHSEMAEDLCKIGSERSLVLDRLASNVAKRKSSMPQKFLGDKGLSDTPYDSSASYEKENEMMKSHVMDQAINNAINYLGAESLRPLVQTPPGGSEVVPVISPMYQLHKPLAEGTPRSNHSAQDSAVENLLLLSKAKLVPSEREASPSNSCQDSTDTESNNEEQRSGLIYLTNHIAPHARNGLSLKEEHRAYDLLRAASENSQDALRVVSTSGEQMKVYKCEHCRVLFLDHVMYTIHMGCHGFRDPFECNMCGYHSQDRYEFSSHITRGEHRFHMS

| DC50 [1] | Helios Jurkat Hibit YMax [2] | DC50 [3] | Dmax [3] | SMILES |
| --- | --- | --- | --- | --- |
| 152 nM | 59.5442% | 0.204 nM | 93.4% | O=C1CCC(N2Cc3c(cc(F)c(C4CCN(Cc5ccc6[nH]ccc6c5)CC4)c3F)C2=O)C(=O)N1 (stereo not shown) [Compound 61, 3-(5-(1-((1H-indol-5-yl)methyl)piperidin-4-yl)-4,6-difluoro-1-oxoisoindolin-2-yl)piperidine-2,6-dione] |
| 3310 nM | 55.0199% | 0.103 nM | 93% | O=C1CCC(N2Cc3c(cc(F)c(C4CCN(Cc5ccc6[nH]ncc6c5)CC4)c3F)C2=O)C(=O)N1 (stereo not shown) [Compound 63, 3-(5-(1-((1H-indazol-5-yl)methyl)piperidin-4-yl)-4,6-difluoro-1-oxoisoindolin-2-yl)piperidine-2,6-dione] |
| 65.1 nM | 65.5325% | 3.32 nM | 89% | CC1(C)Cc2cccc(CN3CCN(Cc4c(F)cc5c(c4F)CN(C4CCC(=O)NC4=O)C5=O)CC3)c2O1 (stereo not shown) [Compound 75, 3-(5-((4-((2,2-dimethyl-2,3-dihydrobenzofuran-7-yl)methyl)piperazin-1-yl)methyl)-4,6-difluoro-1-oxoisoindolin-2-yl)piperidine-2,6-dione] |
| 6.3 nM | 72.1901% | 4.89 nM | 88.8% | O=C1CCC(N2Cc3c(cc(F)c(CN4CCN(Cc5ccc6c(c5)OCCO6)CC4)c3F)C2=O)C(=O)N1 (stereo not shown) [Compound 76, 3-(5-((4-((2,3-dihydrobenzo[b][1,4]dioxin-6-yl)methyl)piperazin-1-yl)methyl)-4,6-difluoro-1-oxoisoindolin-2-yl)piperidine-2,6-dione] |
